Measurements published in patent publication US20230323336A1, “HIGH-THROUGHPUT, DROPLET-BASED SINGLE CELL RNA SEQUENCING” (priority 2021, published 2023).
In brackets after ≈: the same amount, converted by molar mass.

What was measured:
MGH66 [1] = experiment: MIC by standard microdilution, strain MGH66; format: cell-based, K. pneumoniae; details: for MIC: Klebsiella pneumoniae
Procedure: (§1) The cells for flow cytometry were prepared using the same scheme as the meropenem-treated sample for BacDrop. After treating with meropenem at 2 µg/mL for 30 minutes, cells were diluted into PBS at the final concentration of 10^6 cells/mL and immediately run through flow cytometer. For the flow cytometry including dead-cell staining, 10 µL propidium iodide (1 mg/mL) (Invitrogen, cat# P1304MP) was mixed with 1 mL PBS. Cells after treatment were then diluted in the staining buffer at the final concentration of 10^6 cells/mL, and incubated in the dark at room temperature for 15 minutes followed by running through flow cytometer. To sort GFP-low and GFP-high populations, cells were run through fluorescence-activated cell sorting (FACS). Applicants sorted ~10^6 cells into 2 mL LB without or with meropenem (2 µg/mL) from each population. A 50 µL aliquot from cells sorted in LB medium without antibiotics was immediately diluted and plated on LB agar plates without antibiotics. The colony forming unites (CFU) on LB agar plates were enumerated to calculate the survival rates. The rest of the cells was used to measure MICs using the standard microdilution protocol^29 or proceeded with the persister assay. For the persister assay, cells were cultured at 37° C. with shaking. At each time points, a 50 µL aliquot was taken, diluted and plated on LB agar plates without antibiotics. Three replicates were performed in each experiment.

BIDMC35 = experiment: MIC by standard microdilution, strain BIDMC35; format: cell-based, K. pneumoniae; details: for MIC: Klebsiella pneumoniae
Procedure: as §1

UCI38 = experiment: MIC by standard microdilution, strain UCI38; format: cell-based, K. pneumoniae; details: for MIC: Klebsiella pneumoniae
Procedure: as §1

E. coli 10ß = experiment: MIC by standard microdilution, strain E. coli 10ß; format: cell-based
Procedure: as §1, with “Three replicates were performed in each experiment.” left out

MGH66:pBA D: cspD = experiment: MIC by standard microdilution, strain MGH66:pBAD:cspD; format: cell-based, K. pneumoniae; details: cspD induced with 1% arabinose
Procedure: as §1, with “Three replicates were performed in each experiment.” left out

K. pneumoniae MGH66 [2] = experiment: Bulk RNA-seq of antibiotic-treated MGH66; format: cell-based; details: MGH66, OD600 ~0.2, 30 minutes treatment
Procedure: (§2) K.pneumoniae, E.coli, and P. aeruginosa were cultured in Luria-Bertani (LB) medium or Mueller-Hinton Broth (MHB) with shaking at 37° C.E.faecium was cultured in Todd-Hewitt broth (THB) with shaking at 37° C. For the GFP experiment, E.coli strains expressing gfp driven by different promoters were cultured separately in LB at 37° C. Early exponential growth phase cells (OD600 ~0.2) were collected and fixed immediately. For the antibiotic treatment experiment, K.pneumoniae clinical isolate MGH66 was cultured in MHB at 37° C. until early exponential phase. Then the culture was diluted to OD600 0.05 in MHB. After growing for two doublings (~40 min, OD600 ~0.2), the cultures were split into four equal volume cultures. One culture was left untreated, while the other three were treated with relevant antibiotic at breakpoint concentrations set by the Clinical and Laboratory Standards Institute (CLSI): 2 µg/mL for meropenem, 1 µg/mL for ciprofloxacin and 4 µg/mL for gentamicin. After 30 min, 7 mL of cells were collected from each of these cultures, and immediately proceeded with the cell fixation protocol. For the bulk RNA-seq experiments, samples were collected using the same treatment schemes, and three biological replicates were included in each condition. For the BIDMC35 experiment, BIDMC35 was cultured in LB medium at 37° C. until early exponential phase (OD600 ~0.2). 7 mL cells were then collected and immediately proceed with the cell fixation protocol.
To construct sequencing libraries from bacterial cultures, cell pellets collected from 1 mL early exponential phase cultures were re-suspended in 500 µL TRIzol Reagents (ThermoFisher, CN 15596026) and frozen at -80 C for at least 20 min. Cells were then thawed and mixed with 250 µL of 0.1 mm diameter Zirconia/Silica beads (BioSpec Products), and lysed mechanically via bead-beating for 90 second at 10 m/sec on a FastPrep (MP Bio). After addition of 0.1 mL chloroform, each sample tube was mixed thoroughly by inversion, incubated for 3 minutes at room temperature, and centrifuged at 12,000 xg for 15 minutes at 4° C. […]

K. pneumoniae MGH66 [3] = format: cell-based
Procedure: as §2
All reagents (Table 5) for cell fixation and permeabilization were kept ice-cold. […] (Digital Platform Rocker Shaker, VWR). […] Subsequent centrifugations were carried out at 7000 × g for 5 minutes at 4° C. […] Cells were centrifuged and resuspended in 700 µL50% Ethanol in PBS-RI. Cells were then washed twice with PBS-RI. After the second wash, cells were resuspended in 1 mL100 mM Tris-HCL (pH 7.5) supplemented with 0.1 U/uL NxGen RNase inhibitor.
Insufficient permeabilization may result in inefficient rRNA depletion and gDNA removal. For 1 permeabilization reaction, up to 40 million cells were centrifuged and resuspended in 250 µL0.04% Tween-20 in 1x PBS. If more cells are desired, multiple parallel reactions can be set up. Immediately following a 3-minute incubation on ice, 1 mL cold PBS-RI was added, and cells were spun down and resuspended in 200 µL lysozyme mix (100 mM Tris (pH 8.0), 50 mM EDTA pH 8.0, 0.25 U/µL NxGen RNase Inhibitor, 2.5 mg/mL lysozyme). Cells were then incubated at 37° C. for 15 minutes. After the incubation, 1 mL PBS-RI was added and cells were washed twice with 175 µL PBS-RI. After the second wash, cells were resuspended in 150 µL PBS (without RNase inhibitor added) and cell concentrations were measured.
Immediately after cell permeabilization, up to 40 million cells were centrifuged and resuspended in 11 µL nuclease-free H2O. 2 µL NEBNext Bacterial rRNA depletion solution and 2 µL Probe Hybridization Buffer (NEB, CN E7850) were mixed with cells on ice. The hybridization was conducted per the following (lid temperature set to 55° C.): 50° C. for 2 minutes, ramp down to 22° C. at 0.1° C. /second, and hold at 22° C. for 5 minutes. Probe hybridization was immediately followed by RNase H digestion by mixing the probe-hybridized cells with 2 µL RNase H reaction buffer, 2 µL Thermostable RNase H (NEB, CN E7850), and 1 µL nuclease-free H2O, followed by a 30-minute incubation at 50° C. (lid temperature set to 55° C.). […] The reaction was incubated at room temperature for 30 minutes, and the DNase treatment was stopped by adding 1 µL Stop Solution (50 mM EDTA) and incubating at 50° C. for 10 minutes. After the incubation, cells were centrifuged and washed twice with 100 µL PBS-RI. After the second wash, cells were resuspended in 20 µL0.5x PBS supplemented with 1 U/µL SUPERase-In RNase inhibitor and used immediately for in-cell reverse transcription.

MGH66 [4] = experiment: RNA FISH of meropenem-treated MGH66; format: cell-based, K. pneumoniae; details: meropenem-treated MGH66, 20 fields of view
Procedure: RNA FISH probes were designed using Design Probes tool of DECIPHER^32. 3 - 5 probes were designed for each target gene (Table 11). Probes were synthesized at Integrated DNA technologies and labeled with either Cy3 or Alex488 dye at the 5′. Probes of the same gene were pooled together and diluted into 10 µM stocks. Meropenem-treated MGH66 cells were fixed and permeabilized using the same protocol as the cell fixation and permeabilization steps in BacDrop. The hybridization was carried out in 40% hybridization buffer at 50° C. overnight and the following washing steps of washing were performed as described previously^33. Cells were imaged using the DeltaVision widefield deconvolution imaging system with a 60x objective. ImageJ was used for image data analysis and cell quantification.

[5] = test system: MGH66:PyhcN:gfp and MGH66:PcspD:gfp; experiment: Flow cytometry/FACS of GFP reporter strains with live/dead staining; format: cell-based, K. pneumoniae
From the text: (§3) Applicants amplified the promoter region of cspD or yhcN from MGH66 and ligated it into pUA139^26 using the BamHI and XhoI sites, resulting in pUA139-PcspD and pUA139-PyhcN. The construct was then transformed into E.coli DH5a and the plasmids were extracted and verified using Sanger sequencing. Electrocompetent cells of MGH66 was made as previously reported^22. The extracted plasmids were then transformed into MGH66 via electroporation, generating MGH66: PcspD:gfp and MGH66: PyhcN:gfp.
as §1

MGH66 [6] = experiment: Killing kinetics of MGH66 treated with antibiotics (CFU); format: cell-based, K. pneumoniae; details: MGH66, at 30 minutes
Procedure: At each time points, cells from meropenem treatment (green), Ciprofloxacin treatment (blue), Gentamicin treatment (purple), and the untreated samples were diluted and plated on LB agar plates without antibiotics. CFUs from each condition were normalized to the CFUs of the untreated samples at the same time points to calculate the killing rates for each time points. The experiment was repeated three times and the error bars are plotted as standard deviation.

[7] = test system: MGH66:PcspD:gfp sorted subpopulations; MGH66 over-expressing cspD; experiment: Persister assay (CFU over time under meropenem); format: cell-based, K. pneumoniae; details: meropenem 2 µg/mL
Procedure: as §1, with “Three replicates were performed in each experiment.” left out

MGH66: PyhcN:gfp = experiment: MIC by standard microdilution, reporter strain MGH66: PyhcN:gfp; format: cell-based, K. pneumoniae
From the text: as §3
(§4) The cells for flow cytometry were prepared using the same scheme as the meropenem-treated sample for BacDrop. After treating with meropenem at 2 µg/mL for 30 minutes, cells were diluted into PBS at the final concentration of 10^6 cells/mL and immediately run through flow cytometer. For the flow cytometry including dead-cell staining, 10 µL propidium iodide (1 mg/mL) (Invitrogen, cat# P1304MP) was mixed with 1 mL PBS. Cells after treatment were then diluted in the staining buffer at the final concentration of 10^6 cells/mL, and incubated in the dark at room temperature for 15 minutes followed by running through flow cytometer. To sort GFP-low and GFP-high populations, cells were run through fluorescence-activated cell sorting (FACS). Applicants sorted ~10^6 cells into 2 mL LB without or with meropenem (2 µg/mL) from each population. […]

MGH66: PcpsD:gfp = experiment: MIC by standard microdilution, reporter strain MGH66: PcpsD:gfp; format: cell-based, K. pneumoniae
From the text: as §3, §4

[8] = meropenem-treated MGH66, 2 µg/mL, 30 min
[9] = 30 minutes of meropenem treatment

C[C@@H](O)[C@H]1C(=O)N2C(C(=O)O)=C(S[C@@H]3CN[C@H](C(=O)N(C)C)C3)[C@H](C)[C@H]12 [Meropenem, meropenem]
MIC (MGH66 [1]): 0.03 µg/mL (≈ 0.0782 µM) | MIC (BIDMC35): > 32 µg/mL | MIC (UCI38): 0.03 µg/mL (≈ 0.0782 µM) | MIC (E. coli 10ß; Escherichia coli): < 0.03 µg/mL | effect of cspD induction on MIC (MGH66:pBA D: cspD): did not affect | transcriptional response in bulk RNA-seq relative to untreated control (K. pneumoniae MGH66 [2]): minimal transcriptional responses | cells co-expressing cspD and rihC, BacDrop (K. pneumoniae MGH66 [3]; meropenem-treated MGH66): ~ 0.7% | cells co-expressing rseB + yidC, BacDrop (K. pneumoniae MGH66 [3]; meropenem-treated MGH66): ~ 8% | cells in DNA replication and cell division subpopulation (cluster 9) (K. pneumoniae MGH66 [3]; [8]): 1% | cells in cell wall/membrane synthesis subpopulation (cluster 7 and 11) (K. pneumoniae MGH66 [3]; [8]): 5.7% | cells in cspD-expressing subpopulation (cluster 10) (K. pneumoniae MGH66 [3]; [8]): 0.7% | cells in strongest stress response subpopulation (clusters 5 and 12) (K. pneumoniae MGH66 [3]; [8]): 8% | cells co-expressing cspD and rihC, RNA FISH (MGH66 [4]): ~ 0.85% | cells co-expressing rseB + yidC, RNA FISH (MGH66 [4]): ~ 12% | dead cells in the gated population (propidium iodide) [5, 9]: ~ 15.2% | live cells in the GFP-high population [5, 9]: about 94% | live cells in the GFP-low population [5, 9]: approximately 80% | heterogeneous expression of yhcN or cspD GFP reporters ([5]; MGH66:PyhcN:gfp, relative to untreated control): induced heterogeneous expression | impact on cell killing (MGH66 [6]): same impact on cell killing as ciprofloxacin and gentamicin | persister cells in MGH66 over-expressing cspD versus without induction ([7]; 1% arabinose induction): ~ 100 times | tolerant cells/persisters in GFP-high versus GFP-low sorted subpopulation ([7]; MGH66:PcspD:gfp sorted after 30-minute exposure): enriched for meropenem tolerant cells

O=C(O)c1cn(C2CC2)c2cc(N3CCNCC3)c(F)cc2c1=O [Ciprofloxacin, ciprofloxacin]
MIC (MGH66 [1]): 0.03 µg/mL (≈ 0.0905 µM) | MIC (BIDMC35): > 32 µg/mL | MIC (UCI38): 32 µg/mL (≈ 96.6 µM) | transcriptional response in bulk RNA-seq relative to untreated control (K. pneumoniae MGH66 [2]): induced genes involved in SOS response | heterogeneity of single-cell transcriptional response (K. pneumoniae MGH66 [3]; MGH66, 30 min treatment): did not detect obvious heterogeneity of response

gentamicin
MICs (MGH66 [1]): 1 µg/mL | MICs (BIDMC35): 0.5 µg/mL | MICs (UCI38): 2 µg/mL | MICs (E. coli 10ß): <0.03 µg/mL | MICs (MGH66: PyhcN:gfp): 1 µg/mL | MICs (MGH66: PcpsD:gfp): 1 µg/mL | transcriptional response in bulk RNA-seq relative to untreated control (K. pneumoniae MGH66 [2]): induced a group of heat shock chaperone proteins | heterogeneity of single-cell transcriptional response (K. pneumoniae MGH66 [3]; MGH66, 30 min treatment): did not detect obvious heterogeneity of response | treated cells belonging to the heat-shock response cluster (K. pneumoniae MGH66 [3]; MGH66, 30 min treatment, across both replicates): 66%-71%
